Test system: patients with recurrent malignant glioma classified as WHO grade III or IV
Assay: Phase 1 dose-escalation clinical trial: safety (TEAEs, DLTs, MTD);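 further: dosing continued until unacceptable toxicity, consent withdrawal, loss to follow-up or investigator/sponsor decision, with cohorts of 1-6 patients per dose level and MTD estimated by BLRM from cumulative DLT data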
[1] = 480 mg daily (240 mg BID) (N=6), cutoff April 21, 2024
[2] = 480 mg daily [240 mg BID] group, cutoff April 21, 2024
[3] = N=23 (n=2), cutoff April 21, 2023
[4] = N=39 (n=2), cutoff April 21, 2024
[5] = N=39 (n=3), cutoff April 21, 2024
[6] = Total (N=23), cutoff April 21, 2023
[7] = Total (N=39), cutoff April 21, 2024

Protocol: Administration to each subject was continued until unacceptable toxicity occurred, consent was withdrawn, the subject was lost to follow-up, or discontinuation was determined by the investigator and/or the sponsor.
The present study consists of two parts: a dose-escalation part (Part 1) and a dose-expansion part (Part 2).
Each dose level was evaluated in cohorts of 1-6 patients. In all cohorts, administration of the investigational drug to the second and subsequent patients was permitted after completion of all safety assessments on Day 8 of Cycle 1 in the first patient. […] At dose level 2 in the dose-escalation part, at least three patients were required to be evaluated before escalation to a higher dose level. After completion of each cohort, the probability of observing a DLT at each dose level in the present study was updated using the BLRM based on cumulative data from the preceding cohorts, and the MTD was estimated.

Compound: CC1(C)Oc2cc(Cl)ccc2[C@@H]2OCC3(CCN(CCn4ccnc4)CC3)C[C@H]21 [Compound 1, (4'aR,10'bR)-8'-chloro-1-[2-(1H-imidazol-1-yl)ethyl]-5',5'-dimethyl-4'a,10'b-dihydro-2'H,4'H,5'H-spiro[piperidine-4,3'-pyrano[3,2-c][1]benzopyran] diphosphate]
- TEAE: alopecia [1]: 1 (16.7) n (%)
- TEAE: constipation [1]: 1 (16.7) n (%)
- TEAE: decreased appetite [1]: 1 (16.7) n (%)
- TEAE: decreased lymphocyte count [1]: 1 (16.7) n (%)
- TEAE: decreased neutrophil count [1]: 0 n (%)
- TEAE: decreased platelet count [1]: 0 n (%)
- TEAE: diarrhea [1]: 0 n (%)
- TEAE: dry skin [1]: 3 (50.0) n (%)
- TEAE: fall [1]: 3 (50.0) n (%)
- TEAE: fatigue [1]: 2 (33.3) n (%)
- TEAE: headache [1]: 0 n (%)
- TEAE: hypertrigly-ceridaemia [1]: 0 n (%)
- TEAE: hyponatremia [1]: 1 (16.7) n (%)
- TEAE: increase in blood cholesterol [1]: 1 (16.7) n (%)
- TEAE: increased alanine aminotransferase [1]: 5 (83.3) n (%)
- TEAE: increased aspartate aminotransferase [1]: 2 (33.3) n (%)
- TEAE: maculopapular rash [1]: 3 (50.0) n (%)
- TEAE: nausea [1]: 2 (33.3) n (%)
- TEAE: seizure [1]: 1 (16.7) n (%)
- TEAE: vomiting [1]: 3 (50.0) n (%)
- patients with DLTs (Grade 3 maculopapular rash; Grade 2 nausea and vomiting) (480 mg daily (240 mg BID), cutoff April 21, 2024): two
- serious TEAE: confusional state [2]: one
- serious TEAE: fatigue [2]: one
- patients with serious TEAEs (N=23 (6 patients), cutoff April 21, 2023): 26.1%
- patients with Grade ≥3 TEAEs (N=23 (13 patients), cutoff April 21, 2023): 56.5%
- patients with TEAEs considered to be related to the study drug (N=23 (16 patients), cutoff April 21, 2023): 69.6%
- Grade ≥3 TEAE: aphasia [3]: 8.7%
- Grade ≥3 TEAE: decreased lymphocyte count [3]: 8.7%
- Grade ≥3 TEAE: decreased white blood cell count [3]: 8.7%
- Grade ≥3 TEAE: headache [3]: 8.7%
- Grade ≥3 TEAE: decreased neutrophil count (N=23 (n=3), cutoff April 21, 2023): 13.0%
- Grade ≥3 TEAE: seizure (N=23 (n=4), cutoff April 21, 2023): 17.4%
- patients who died during the study due to TEAEs (assessed as not related) (N=23, 40 mg and 240 mg groups, cutoff April 21, 2023): two
- Grade ≥3 TEAE considered related to Compound 1 (dry skin) (N=23, cutoff April 21, 2023): one
- relatedness of serious TEAEs to Compound 1 (N=23, cutoff April 21, 2023): None of these serious TEAEs were considered to be related to Compound 1
- patients with serious TEAEs (N=39 (9 patients), cutoff April 21, 2024): 23.1%
- patients with Grade ≥3 TEAEs (N=39 (23 patients), cutoff April 21, 2024): 59.0%
- patients with TEAEs considered to be related to the study drug (N=39 (30 patients), cutoff April 21, 2024): 76.9%
- Grade ≥3 TEAE considered related to Compound 1: fatigue (N=39 (n=1), cutoff April 21, 2024): 2.6%
- Grade ≥3 TEAE considered related to Compound 1: dry skin [4]: 5.1%
- Grade ≥3 TEAE considered related to Compound 1: maculopapular rash [4]: 5.1%
- Grade ≥3 TEAE: decreased white blood cell count [4]: 5.1%
- Grade ≥3 TEAE: dry skin [4]: 5.1%
- Grade ≥3 TEAE: increased alanine aminotransferase [4]: 5.1%
- Grade ≥3 TEAE: maculopapular rash [4]: 5.1%
- Grade ≥3 TEAE: aphasia [5]: 7.7%
- Grade ≥3 TEAE: decreased lymphocyte count [5]: 7.7%
- Grade ≥3 TEAE: decreased neutrophil count [5]: 7.7%
- Grade ≥3 TEAE: headache [5]: 7.7%
- Grade ≥3 TEAE: fatigue (N=39 (n=4), cutoff April 21, 2024): 10.3%
- Grade ≥3 TEAE: seizure (N=39 (n=5), cutoff April 21, 2024): 12.8%
- patients who died during the study due to TEAEs (N=39, 40 mg QD and 240 mg QD groups, cutoff April 21, 2024): Two
- serious TEAEs considered to be related to Compound 1 (N=39, cutoff April 21, 2024): nine and None of these serious TEAEs were considered to be related to Compound 1
- Number of patients with any TEAE [6]: 23 (100) n (%)
- TEAE: constipation [6]: 7 (30.4) n (%)
- TEAE: decreased appetite [6]: 3 (13.0) n (%)
- TEAE: decreased lymphocyte count [6]: 5 (21.7) n (%)
- TEAE: decreased neutrophil count [6]: 6 (26.1) n (%)
- TEAE: decreased platelet count [6]: 4 (17.4) n (%)
- TEAE: decreased white blood cell count [6]: 3 (13.0) n (%)
- TEAE: dry skin [6]: 5 (21.7) n (%)
- TEAE: fall [6]: 3 (13.0) n (%)
- TEAE: headache [6]: 7 (30.4) n (%)
- TEAE: hypertrigly-ceridaemia [6]: 4 (17.4) n (%)
- TEAE: hyponatremia [6]: 3 (13.0) n (%)
- TEAE: increased alanine aminotransferase [6]: 12 (52.2) n (%)
- TEAE: increased aspartate aminotransferase [6]: 6 (26.1) n (%)
- TEAE: nausea [6]: 11 (47.8) n (%)
- TEAE: seizure [6]: 5 (21.7) n (%)
- TEAE: vomiting [6]: 6 (26.1) n (%)
- Number of Patients with Any TEAE [7]: 39 (100) n (%)
- TEAE: Confusional state [7]: 4 (10.3) n (%)
- TEAE: Gait disturbance [7]: 4 (10.3) n (%)
- TEAE: Gastrointestinal disorder [7]: 4 (10.3) n (%)
- TEAE: Hiccups [7]: 4 (10.3) n (%)
- TEAE: Tremor [7]: 4 (10.3) n (%)
- TEAE: alopecia [7]: 6 (15.4) n (%)
- TEAE: constipation [7]: 11 (28.2) n (%)
- TEAE: decreased appetite [7]: 6 (15.4) n (%)
- TEAE: decreased lymphocyte count [7]: 6 (15.4) n (%)
- TEAE: decreased neutrophil count [7]: 6 (15.4) n (%)
- TEAE: decreased platelet count [7]: 5 (12.8) n (%)
- TEAE: diarrhea [7]: 5 (12.8) n (%)
- TEAE: dry skin [7]: 10 (25.6) n (%)
- TEAE: fall [7]: 9 (23.1) n (%)
- TEAE: fatigue [7]: 7 (17.9) n (%)
- TEAE: headache [7]: 9 (23.1) n (%)
- TEAE: hypertrigly-ceridaemia [7]: 5 (12.8) n (%)
- TEAE: hyponatremia [7]: 5 (12.8) n (%)
- TEAE: increase in blood cholesterol [7]: 4 (10.3) n (%)
- TEAE: increased alanine aminotransferase [7]: 25 (64.1) n (%)
- TEAE: increased aspartate aminotransferase [7]: 13 (33.3) n (%)
- TEAE: maculopapular rash [7]: 4 (10.3) n (%)
- TEAE: nausea [7]: 21 (53.8) n (%)
- TEAE: seizure [7]: 7 (17.9) n (%)
- TEAE: vomiting [7]: 14 (35.9) n (%)
- study drug related Grade 3 AEs (dry skin, and rash) (as of September 2023, n=33): 2
- study drug-related SAEs (as of September 2023, n=33): no study drug-related SAEs reported
- dose-limiting toxicities (DLTs) (from 20 mg QD to 240 mg QD, cutoff April 21, 2024): No dose-limiting toxicities (DLTs) were observed
- dose limiting toxicity (from 20 mg up to 240 mg, as of September 2023): No dose limiting toxicity reported
- serious TEAE: seizure (one 20 mg QD, one 120 mg QD, two 180 mg QD, cutoff April 21, 2024): four

— patent EP4806435A1, “DIHYDROCHROMENE-DERIVATIVE-CONTAINING THERAPEUTIC AGENT FOR CANCER” (Sumitomo Pharma Co., Ltd., priority 2023, dated 2025)
